{"source": "paper PMC7914367", "about": "“Dual-ligand supramolecular nanofibers inspired by the renin-angiotensin system for the targeting and synergistic therapy of myocardial infarction” (Theranostics, 2021)", "key": {"[1]": {"test_system": "NRCMs", "assay": "TUNEL staining of OGD NRCMs", "format": "cell-based, rat", "settings": "10 μM, 2-3 h, OGD group 26.70%, n = 3"}, "[2]": {"test_system": "p-AKT, Bax/Bcl-2, cleaved caspase-3", "assay": "Western blot of apoptosis-related proteins in OGD NRCMs", "format": "cell-based, rat", "settings": "vs OGD group, n = 3", "protocol": "AKT, p-AKT, Bax, Bcl-2, cleaved caspase-3, P65, TGF-β1, Histone3, AT1R, GAPDH were quantified by western blot analysis. Protein concentration was determined using the bicinchoninic acid (BCA) method. SDS-PAGE was conducted to separate the proteins in each sample (30-50 µg of protein per lane), which were subsequently transferred to a PVDF membrane. The membranes were treated with blocking buffer for 2 h at room temperature and then incubated overnight with primary antibodies at 4 °C. The primary antibodies used included anti-Phospho-AKT (1:1000 dilution), anti-AKT (1:1000 dilution), anti-caspase-3 (1:1000 dilution), anti-Bcl-2 (1:100 dilution), anti-Bax (1:1000 dilution), anti-P65 (1:800 dilution), anti-TGF-β1 (1:1000 dilution), anti-Histone 3 (1:1000 dilution) and anti-AGTR1 (1:1000 dilution). The results were normalized by comparison to parallel western blots for glyceraldehyde 3-phosphate dehydrogenase (GAPDH, 1:8000 dilution). Optical density was measured using an image processing analysis program."}, "[3]": {"test_system": "NRCMs", "assay": "Intracellular ROS with DHE probe", "format": "cell-based, rat", "settings": "OGD NRCMs, 10 μM; OGD group 5.72-fold; n = 3", "protocol": "The cells were counterstained with DAPI and were observed under a fluorescence microscope (details in Supporting Information). […]\n(§1) manufacturer ’s protocol. Cells were then stained with DAPI. The TUNEL positive cells were observed by the fluorescence microscope (λexc = 488 nm for TUNEL, λexc = 405 […]\nIntracellular ROS was quantified with dihydroethidium (DHE). After incubated with different treatments under OGD condition, NRCMs were then cultured with DMEM medium containing […] of DHE for 30 min at 37 ℃ and then wash ed twice with PBS. Nucleuses of NRCMs were dyed by Hoechst 33342 stain solution for 30 min at 37 °C. Intracellular ROS were detected by the fluorescence microscope (λexc = 532 nm for DHE, λexc = 405 nm for Hoechst 33342).\nAdult male C57BL/6 mice (20-30g, 8-10 weeks old) were purchased from the laboratory animal center of Southern Medical University. For the MI model, mice were subjected to permanent l eft anterior descending (LAD) ligation as described previously. In brief, the animals were anesthetized using 1.5% sodium pentobarbital (50 mg/kg) through intraperitoneal i njection, and mice were ventilated with a rodent ventilator subsequently. We exposed mice hearts by the fourth intercostal space incision and a subsequent pericardium removal. The LAD was ligated using an 8-0-prolene suture permanently to perform MI generation. […]"}, "[4]": {"test_system": "NRCFs", "assay": "Conditioned medium interference experiments (TGF-β1 in CM, α-SMA in NRCFs)", "format": "cell-based, rat", "settings": "NRCFs cultured 24 h with conditioned medium of pretreated OGD NRCMs, immunofluorescence, n = 3", "protocol": "Next, the cells were blocked by incubating with goat serum for 30 min and incubated with primary antibodies overnight at 4 °C. The primary antibodies used here included anti-AT1R (1:200 dilution), anti-cTNT (1:500 dilution), anti-P65 (1:800 dilution), and anti‐α-SMA (1:400 dilution). The cells were incubated with FITC-labeled Goat Anti-Rabbit IgG (1:200 dilution) or Cy3-labeled Goat Anti-Mouse IgG (1:200 dilution) for 2 h at room temperature. The cells were counterstained with DAPI and imaged using a fluorescence microscope (Leica Dmi8, Germany).\nCM from untreated or compound-treated cells were produced as follows. NRCMs were seeded in 35 mm culture dishes at 1 × 10^6 cells per well and incubated in growth medium containing different compounds or in media devoid of compounds for 12 h. Next, the media were replaced with serum-free medium, and the cells were cultured under hypoxia for 6 h. The CM was collected and centrifuged to culture NRCFs after a 12 h starvation period. Immunofluorescence of α-SMA was analyzed as per protocol after 24 h.\n(§2) The serum and CM were collected at the indicated time points from the different groups of mice. The levels of TNF-α, IL-6, ALT, Cre, and TGF-β1 were measured using ELISA kits according to the manufacturer's protocol. The absorbance was measured at 450 nm using a microplate reader."}, "[5]": {"test_system": "MI mouse model", "assay": "Echocardiography post-MI", "format": "in vivo, C57BL/6 mice", "settings": "MI mice, 4th week, tail vein every 2 days (TDCNfs 1084.16, T+A 328.96+576, Tel 328.96, Ang1-7 576 μg/kg); MI group approx 16%; n = 5", "protocol": "(§3) Adult male C57BL/6 mice (20-30 g, 8-10 week) were purchased from the laboratory animal center of Southern Medical University, China. The protocols were approved according to the Zhujiang Hospital of Southern Medical University animal care and use committee guidelines, which conform to the guide for the care and use of laboratory animals published by the US National Institutes of Health (8th edition, 2011). […] Next, 100 µL of different drugs were administered intravenously through tail vein injection every 2 days for 3 weeks, while the mice in the Sham and MI groups were treated with an equal volume of PBS.\nTwenty-eight days after surgery, the mice were anesthetized through the inhalation of isoflurane (1-1.5%) in O2 and echocardiographic examination was performed using a Vevo 2100 System equipped with a 30 MHz transducer (FUJIFILM Visual Sonics, Canada). The LVEDD, LVESD, LVEFs, and LVFS were measured. All measurements were repeated for at least three consecutive pulsation cycles and the data were averaged for statistical analysis. […]\nas §1\nIntracellular ROS was quantified with dihydroethidium (DHE). […] Intracellular ROS were detected by the fluorescence microscope (λexc = 532 nm for DHE, λexc = 405 nm for Hoechst 33342). […]"}, "[6]": {"test_system": "MI mouse model", "assay": "Masson's trichrome staining, infarct size", "format": "in vivo, C57BL/6 mice", "settings": "MI mice, 4 weeks, collagen area/LV area, MI group 36.60%, vehicle 1219.84 μg/kg, n = 5", "protocol": "as §3\nThe mice were sacrificed at 4 weeks after the induction of MI, and hearts and major organs were harvested and fixed in 4% paraformaldehyde overnight and embedded in paraffin. The hearts were sectioned to 5 µm along the short axis transversely across the infarct zone. The major organs were sectioned to 5 µm along the short axis. Following deparaffinization and dehydration, the samples underwent H&E and Masson's trichrome staining. The sections were observed under a microscope to evaluate the therapeutic effect and safety of the drugs. The collagen and LV areas were measured using the Image-Pro Plus software (version 6.0; Media Cybernetics, Silver Spring, MD, USA). Infarct size (%) was calculated as the ratio of the collagen area to the LV area."}, "[7]": {"test_system": "MI mouse model", "assay": "In vivo mechanism: caspase-3 IHC, α-SMA immunofluorescence, type I collagen, TGF-β1, serum cytokines", "design": "species or system C57BL/6 mice", "settings": "MI mice, n = 5", "protocol": "Frozen sections were prepared in vivo, as described previously. For drugs distribution, near-infrared laser imager (GE Amersham Typhoon, Sweden) was used to capture full cross section of hearts. For co-localization experiments, the mice hearts were dissected 24 h post-injection of drugs. Anti-AT1R primary antibody (1:200 dilution) was used as the primary antibody. For fibrosis investigation, the frozen sections were incubated with primary antibodies against α-SMA (1:400 dilution). The staining signals were visualized using FITC-labeled Goat Anti-Rabbit IgG (1:200 dilution) or Cy3-labeled Goat Anti-Rabbit IgG (1:200 dilution). The sections were counterstained with DAPI and examined under a laser confocal scanning microscope (Leica TCS SP8, Germany).\nThe heart tissues were fixed in 4% paraformaldehyde, dehydrated in ethanol, cleared in xylene, and embedded in paraffin. The samples were then cut into 6 μm sections on a microtome and deparaffinized. The sections were blocked by incubating with 1% BSA at room temperature for 30 min and then incubated overnight with anti-cleaved caspase-3 (1:700 dilution), anti-AT1R (1:100 dilution), anti-Collagen I (1:200 dilution) at 4 °C. Next, the sections were washed and incubated with secondary antibodies (1:500 dilution) at room temperature. The tissue sections were incubated with diaminobenzidine and counterstained with hematoxylin, dehydrated, and mounted before viewing under a microscope.\nas §2"}}}
{"smiles": "CCCc1nc2c(C)cc(-c3nc4ccccc4n3C)cc2n1Cc1ccc(-c2ccccc2C(=O)O)cc1", "note": "[Tel, telmisartan]", "values": [{"measurement": "TUNEL-positive NRCMs", "setting": "[1]", "value": 17.62, "unit": "%"}, {"measurement": "decrease of Bax/Bcl-2 value", "setting": "[2]", "value": 76.3, "unit": "%"}, {"measurement": "increase of p-AKT expression", "setting": "[2]", "value": "more than 10 fold"}, {"measurement": "fluorescence intensity of superoxide anion (DHE) compared to the control group", "setting": "[3]", "value": 3.23, "unit": "fold"}, {"measurement": "reduction of α-SMA levels in NRCFs compared to the OGD group", "setting": "[4]", "value": 20.48, "unit": "%"}, {"measurement": "left ventricular ejection fractions (LVEFs)", "setting": "[5]", "value": 29.54, "unit": "%"}, {"measurement": "infarct size", "setting": "[6]", "value": 25.80, "unit": "%"}, {"measurement": "α-SMA expression in the non-infarcted area", "setting": "[7]; 4 weeks post-treatment, immunofluorescence", "value": "inhibited to a certain extent"}, {"measurement": "caspase-3 expression in infarct border zone", "setting": "[7]; immunohistochemistry", "value": "reduced moderately"}]}
